Assay results from the NIST ThermoML archive (doi:10.1016/j.jct.2006.09.008).
“And” between values parts separate entries of the source, which are not always exact repeats. Identical values can stand only once.

Experiment: mn = molality of the nth substance listed, in mol/kg
Conditions: 350 kPa, Liquid

O=[N+]([O-])[O-].O=[N+]([O-])[O-].[Mg+2] [magnesium nitrate] + O
mass density [kg/m3]
Conditions	m1 = 0.0228	m1 = 0.0567	m1 = 0.1086	m1 = 0.2145	m1 = 0.3197	m1 = 0.4749	m1 = 0.6211	m1 = 0.811	m1 = 1	m1 = 1.014
278.15 K	1002.6	1006.37	1012.2	1023.83	1035.31	1051.77	1066.82	1086.01	1104.79	1106.04
283.15 K	1002.29	1005.98	1011.77	1023.21	1034.48	1050.8	1065.63	1084.59	1103.2	1104.4
288.15 K	1001.64	1005.28	1011.01	1022.29	1033.42	1049.55	1064.22	1082.99	1101.41	1102.61
298.15 K	999.48	1003.07	1008.68	1019.73	1030.65	1046.49	1060.93	1079.39	1097.46	1098.71
308.15 K	996.42	999.96	1005.49	1016.39	1027.14	1042.74	1056.98	1075.19	1093.03	1094.27
318.15 K	992.59	996.09	1001.54	1012.32	1022.97	1038.38	1052.47	1070.47	1088.14	1089.36
328.15 K	988.06	991.53	996.93	1007.61	1018.17	1033.44	1047.38	1065.25	1082.78	1083.97
338.15 K	982.92	986.36	991.75	1002.35	1012.86	1027.99	1041.88	1059.64	1077.04	1078.2
348.15 K	977.2	980.38	985.71	996.29	1007.11	1022.17	1035.94	1053.67	1071	1071.85
358.15 K	970.99	974.49	979.87	990.4	1000.85	1015.92	1029.76	1047.38	1064.73	1065.89
368.15 K	964.33	967.8	973.17	983.77	994.23	1009.33	1023.17	1040.85	1058.19	1059.34

O=[N+]([O-])[O-].O=[N+]([O-])[O-].[Mn+2] [manganese nitrate] + O
mass density
Conditions	m1 = 0.0248	m1 = 0.0503	m1 = 0.0836	m1 = 0.5132
278.15 K	1003.65 kg/m3	1007.23 kg/m3	1011.97 kg/m3	1069.81 kg/m3 and 1069.71 kg/m3
283.15 K	1003.3 kg/m3	1006.89 kg/m3	1011.53 kg/m3	1068.8 kg/m3 and 1068.6 kg/m3
288.15 K	1002.66 kg/m3	1006.23 kg/m3	1010.8 kg/m3	1067.5 kg/m3 and 1067.36 kg/m3
298.15 K	1000.56 kg/m3	1004.07 kg/m3	1008.54 kg/m3	1064.29 kg/m3 and 1064.16 kg/m3
308.15 K	997.52 kg/m3	1000.98 kg/m3	1005.36 kg/m3	1060.4 kg/m3 and 1060.29 kg/m3
318.15 K	993.61 kg/m3	997.07 kg/m3	1001.42 kg/m3	1055.86 kg/m3 and 1055.72 kg/m3
328.15 K	988.96 kg/m3	992.44 kg/m3	996.79 kg/m3	1050.75 kg/m3 and 1050.71 kg/m3
338.15 K	983.93 kg/m3	987.31 kg/m3	991.63 kg/m3	1045.39 kg/m3 and 1045.24 kg/m3
348.15 K	978.24 kg/m3	981.59 kg/m3	985.88 kg/m3	1039.4 kg/m3 and 1039.32 kg/m3
358.15 K	972 kg/m3	975.36 kg/m3	979.63 kg/m3	1033.07 kg/m3 and 1032.97 kg/m3
368.15 K	965.29 kg/m3	968.63 kg/m3	972.92 kg/m3	1026.26 kg/m3 and 1026.2 kg/m3

O=[N+]([O-])[O-].O=[N+]([O-])[O-].[Sr+2] [strontium nitrate] + O
mass density [kg/m3]
Conditions	m1 = 0.0499	m1 = 0.1006	m1 = 0.2005	m1 = 0.4995	m1 = 0.7992	m1 = 0.9995	m1 = 1.502	m1 = 2.003	m1 = 3.001
278.15 K	1009	1017.14	1034.72	1082.77	1130.52	1158.71	1231.7	1297.55	1414.38
283.15 K	1008.59	1017.1	1033.98	1082.1	1128.88	1157.52	1229.46	1295.12	1411.42
288.15 K	1007.84	1016.26	1032.93	1080.71	1126.92	1155.34	1226.86	1292.1	1407.51
298.15 K	1005.56	1013.81	1030.24	1077.19	1122.76	1150.87	1221.49	1286.04	1400.33
308.15 K	1002.4	1010.56	1026.7	1073.1	1117.95	1146.06	1215.55	1279.41	1393.17
318.15 K	998.47	1006.61	1022.45	1068.41	1112.6	1140.61	1209.17	1272.01	1385.59
328.15 K	993.97	1001.97	1017.66	1063.12	1106.82	1134.72	1201.99	1264.61	1377.87
338.15 K	988.74	996.66	1012.18	1057.26	1100.32	1128.27	1194.55	1256.5	1369.7
348.15 K	983.02	990.85	1006.4	1051.04	1094.06	1121.59	1188.05	1249.78	1361.53
358.15 K	976.66	984.57	999.95	1044.34	1087.19	1114.51	1180.88	1242.32	1353.05
368.15 K	969.9	977.81	993.09	1037.31	1079.94	1107.09	1173.15	1234.38	1344.4
